Laboratory results: patent US11242337B2, “Compounds useful for treating gastrointestinal tract disorders” (Ardelyx, Inc., priority 2017, dated 2022)

Assays:
NHE3 [1] = biological target: T1, NHE3 (Homo sapiens, UniProt P48764); assay: Cell-based assay of NHE-3 activity (persistent inhibition), human; settings: human Persistence, 60 min incubation then washout
T1 construct: expressed in transfected cells
T1 sequence (P48764 26-834): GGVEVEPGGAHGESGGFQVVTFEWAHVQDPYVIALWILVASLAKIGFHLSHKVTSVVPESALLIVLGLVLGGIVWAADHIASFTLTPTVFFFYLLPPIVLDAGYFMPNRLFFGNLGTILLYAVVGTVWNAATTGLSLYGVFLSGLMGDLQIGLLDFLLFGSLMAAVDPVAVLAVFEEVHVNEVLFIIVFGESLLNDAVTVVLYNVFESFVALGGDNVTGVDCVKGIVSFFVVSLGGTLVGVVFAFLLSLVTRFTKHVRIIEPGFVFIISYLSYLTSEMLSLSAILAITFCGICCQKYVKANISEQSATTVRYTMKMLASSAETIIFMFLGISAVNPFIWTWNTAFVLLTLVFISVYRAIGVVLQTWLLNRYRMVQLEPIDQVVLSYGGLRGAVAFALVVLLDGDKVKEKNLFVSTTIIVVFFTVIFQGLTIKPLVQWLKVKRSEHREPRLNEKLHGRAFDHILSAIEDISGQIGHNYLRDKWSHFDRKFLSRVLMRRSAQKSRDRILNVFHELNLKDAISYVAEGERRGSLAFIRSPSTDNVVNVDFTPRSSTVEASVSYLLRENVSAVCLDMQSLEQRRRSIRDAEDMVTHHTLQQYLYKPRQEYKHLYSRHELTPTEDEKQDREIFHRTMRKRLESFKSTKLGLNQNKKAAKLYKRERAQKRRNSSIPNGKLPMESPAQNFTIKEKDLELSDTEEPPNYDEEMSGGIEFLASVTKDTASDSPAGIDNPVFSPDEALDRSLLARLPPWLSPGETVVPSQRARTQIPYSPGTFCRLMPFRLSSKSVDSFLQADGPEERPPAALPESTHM
T1 sequence (Q99653 2-195 partner limits assumed): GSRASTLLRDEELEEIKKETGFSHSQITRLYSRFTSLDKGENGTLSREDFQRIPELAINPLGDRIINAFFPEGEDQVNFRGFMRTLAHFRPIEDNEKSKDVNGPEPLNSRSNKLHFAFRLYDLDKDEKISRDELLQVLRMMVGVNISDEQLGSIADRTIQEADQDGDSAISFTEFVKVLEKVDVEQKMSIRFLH
Method in brief: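 Persistent inhibition: compound (0-30 μM, 60 min, RT, NaCl-HEPES pH 7.4) removed before assay. Human NHE3/NHERF2 PS120 cells were then BCECF-loaded during NH4Cl pulse (30 min, 37 °C), acidified in Na+-free buffer, and Na+ added 10 min after washout; antiport measured as initial fluorescence-ratio change per minute.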

NHE3 [2] = biological target: T1, NHE3; assay: Cell-based assay of NHE-3 activity (pre-incubation inhibition), human; settings: human Preincubation
Method in brief: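 Activity read as initial rate of BCECF fluorescence ratio change per minute (ex 439/505, em 538 nm) following NH4Cl prepulse acid loading. Compound (0–30 μM) present during 10 min Na+-free acidification at room temperature; cells were PS120 fibroblasts stably co-expressing human NHE3 and NHERF2.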

Row | Structure (SMILES) | % inhibition (NHE3 [1]) | pIC50 (NHE3 [1]) | % inhibition (NHE3 [2]) | pIC50 (NHE3 [2]; 0-30 μM test compound) | IC50 (NHE3 [1]) | IC50 (NHE3 [2]; 0-30 μM test compound)
1 | Cc1cc(Cl)cc2c1C[C@H](N1CCC[C@@H](N(C)C)C1)[C@H]2Oc1ccc(S(=O)(=O)NCCOCCOCCNC(=O)NCCCCNC(=O)NCCOCCOCCNS(=O)(=O)c2ccc(O[C@H]3c4cc(Cl)cc(C)c4C[C@@H]3N3CCC[C@@H](N(C)C)C3)c(F)c2)cc1F [Example 30, 3-[2-(2-[2-[(4-[[(1S,2S)-6-Chloro-2-[(3R)-3-(dimethylamino)piperidin-1-yl]-4-methyl-2,3-dihydro-1H-inden-1-yl]oxy]-3-fluorobenzene)sulfonamido]ethoxy]ethoxy)ethyl]-1-[4-([[2-(2-[2-[(4-[[(1S,2S)-6-chloro-2-[(3R)-3-(dimethylamino)piperidin-1-yl]-4-methyl-2,3-dihydro-1H-inden-1-yl]oxy]-3-fluorobenzene)sulfonamido]ethoxy]ethoxy)ethyl]carbamoyl]amino)butyl]urea; bis(trifluoroacetic acid)] | C (>70%) | C (NHE3 pIC50 > 7) | C (>70%) | C (NHE3 pIC50 > 7) |  | 
2 | Cc1cc(S(=O)(=O)NCCOCCOCCNC(=O)NCCCCNC(=O)NCCOCCOCCNS(=O)(=O)c2ccc(O[C@H]3c4cc(Cl)cc(C)c4C[C@@H]3N3CCC[C@@H](N(C)C)C3)c(C)c2)ccc1O[C@H]1c2cc(Cl)cc(C)c2C[C@@H]1N1CCC[C@@H](N(C)C)C1 [Example 29] | C (>70%) | C (NHE3 pIC50 > 7) | C (>70%) | C (NHE3 pIC50 > 7) |  | 
3 | Cc1cc(S(=O)(=O)N2CC[C@@H](COc3ccnc(CNC(=O)NCCCCNC(=O)NCc4cc(OC[C@@H]5CCN(S(=O)(=O)c6ccc(O[C@H]7c8cc(Cl)cc(Cl)c8C[C@@H]7N(C)C)c(C)c6)C5)ccn4)c3)C2)ccc1O[C@H]1c2cc(Cl)cc(Cl)c2C[C@@H]1N(C)C [Example 49, 3-[(4-[[(3R)-1-[(4-[[(1S,2S)-4,6-Dichloro-2-(dimethylamino)-2,3-dihydro-1H-inden-1-yl]oxy]-3-methylbenzene)sulfonyl]pyrrolidin-3-yl]methoxy]pyridin-2-yl)methyl]-1-[4-([[(4-[[(3R)-1-[(4-[[(1S,2S)-4,6-dichloro-2-(dimethylamino)-2,3-dihydro-1H-inden-1-yl]oxy]-3-methylbenzene)sulfonyl]pyrrolidin-3-yl]methoxy]pyridin-2-yl)methyl]carbamoyl]amino)butyl]urea] | C (>70%) | C (NHE3 pIC50 > 7) | C (>70%) | B (NHE3 pIC50 6-7) |  | 
4 | N#Cc1cc(Cl)cc2c1C[C@H](N1CCNCC1)[C@H]2Oc1ccc(S(=O)(=O)N2CCC(NC(=O)CCCNC(=O)NCCCCNC(=O)NCCCC(=O)NC3CCN(S(=O)(=O)c4ccc(O[C@H]5c6cc(Cl)cc(C#N)c6C[C@@H]5N5CCNCC5)cc4)CC3)CC2)cc1 [Example 120, N^1,N^18-Bis(1-([4-([(1S,2S)-6-chloro-4-cyano-2-(piperazin-1-yl)-2,3-dihydro-1H-inden-1-yl]oxy)phenyl]sulfonyl)piperidin-4-yl)-6,13-dioxo-5,7,12,14-tetraazaoctadecanediamide] | C (>70%) | C (NHE3 pIC50 > 7) | C (>70%) | C (NHE3 pIC50 > 7) |  | 
5 | Cc1cc(S(=O)(=O)NCCOCCOCCNC(=O)NCCCCNC(=O)NCCOCCOCCNS(=O)(=O)c2ccc(O[C@H]3c4cc(Cl)cc(C)c4C[C@@H]3N3CCNCC3)c(C)c2)ccc1O[C@H]1c2cc(Cl)cc(C)c2C[C@@H]1N1CCNCC1 [Example 35, 3-[2-(2-[2-[(4-[[(1S,2S)-6-Chloro-4-methyl-2-(piperazin-1-yl)-2,3-dihydro-1H-inden-1-yl]oxy]-3-methylbenzene)sulfonamido]ethoxy]ethoxy)ethyl]-1-[4-([[2-(2-[2-[(4-[[(1S,2S)-6-chloro-4-methyl-2-(piperazin-1-yl)-2,3-dihydro-1H-inden-1-yl]oxy]-3-methylbenzene)sulfonamido]ethoxy]ethoxy)ethyl]carbamoyl]amino)butyl]urea; bis(trifluoroacetic acid)] | C (>70%) | C (NHE3 pIC50 > 7) | C (>70%) | C (NHE3 pIC50 > 7) |  | 
6 | O=C(NCCCCNC(=O)NCCOCCN1CC[C@@H](NS(=O)(=O)c2ccc(O[C@H]3c4cc(Cl)cc(Cl)c4C[C@@H]3N3CCNCC3)c(F)c2)C1)NCCOCCN1CC[C@@H](NS(=O)(=O)c2ccc(O[C@H]3c4cc(Cl)cc(Cl)c4C[C@@H]3N3CCNCC3)c(F)c2)C1 [Example 105, 4-([(1S,2S)-4,6-Dichloro-2-(piperazin-1-yl)-2,3-dihydro-1H-inden-1-yl]oxy)-N—[(R)-1-(20-[(R)-3-([4-([(1S2S)-4,6-dichloro-2-(piperazin-1-yl)-2,3-dihydro-1H-inden-1-yl]oxy)-3-fluorophenyl]sulfonamido)pyrrolidin-1-yl]-7,14-dioxo-3,18-dioxa-6,8,13,15-tetraazaicosyl)pyrrolidin-3-yl]-3-fluorobenzenesulfonamide; tetra(trifluoroacetate)] | C (>70%) |  | C (>70%) |  | < 100 nM | < 100 nM
